Reference: PubChem BioAssay (NCI)
Where “and” joins values, the source holds several entries; their conditions need not be identical. Identical values can stand only once.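 Cultured in 96-well plates, cells were exposed to test compound for 48 hours across five concentrations. Abbreviation: GI50, concentration required for 50% inhibition of growth. At the TGI there is no net growth.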

Assays:
Test in all cases: NCI-60 cell line screen, 48 h
RPMI-8226 leukemia = test system: RPMI-8226 leukemia
HCC-2998 colon = test system: HCC-2998 colon
IGROV1 ovarian = test system: IGROV1 ovarian
A549 NSCLC = test system: A549 NSCLC
HL-60(TB) leukemia = test system: HL-60(TB) leukemia
NCI-H460 lung = test system: NCI-H460 lung
HT29 colon = test system: HT29 colon
SK-OV-3 ovarian = test system: SK-OV-3 ovarian
OVCAR-3 ovarian = test system: OVCAR-3 ovarian
T-47D breast = test system: T-47D breast

Structure (SMILES) | TGI (RPMI-8226 leukemia) | TGI (HCC-2998 colon) | TGI (IGROV1 ovarian) | TGI (A549 NSCLC) | TGI (HL-60(TB) leukemia) | TGI (NCI-H460 lung) | TGI (HT29 colon) | TGI (SK-OV-3 ovarian) | TGI (OVCAR-3 ovarian) | TGI (T-47D breast) | GI50 (T-47D breast) | GI50 (HCC-2998 colon) | GI50 (IGROV1 ovarian) | GI50 (A549 NSCLC) | GI50 (NCI-H460 lung) | GI50 (HT29 colon) | GI50 (SK-OV-3 ovarian) | GI50 (OVCAR-3 ovarian)
C/C(=C1/N=C(c2cc([N+](=O)[O-])ccc2Cl)N(C2=CC=C(Cl)CC2)C1=O)c1cc2ccccc2oc1=O | > 100 µM | > 100 µM | > 100 µM | > 100 µM | > 100 µM | > 100 µM | > 100 µM | > 100 µM | > 100 µM |  |  |  |  |  |  |  |  | 
COc1ccccc1/C=C1/Sc2scc(CC(=O)Nc3ccccc3)[n+]2C1=O |  | > 100 µM | > 100 µM | > 100 µM | 47.1 µM | > 100 µM | > 100 µM | 71.7 µM | 43.4 µM |  |  |  |  |  |  |  |  | 
O=C(/C(Cl)=C/c1ccccc1)c1ccccc1 | > 46.2 µM | 12.9 µM |  | 34.1 µM |  | 30.5 µM | 3.52 µM | 39.8 µM | 8.36 µM | 27.1 µM |  |  |  |  |  |  |  | 
Cc1cc2nc3c(C(O)CO)nn(-c4ccccc4)c3nc2cc1C (stereo not given) | > 100 µM |  | 43.9 µM | 48.5 µM | 45.8 µM | 37.4 µM | 46.5 µM |  | 35.1 µM | 91.5 µM |  |  |  |  |  |  |  | 
C[C@@H]1CCN(C(=O)CC#N)C[C@@H]1N(C)c1ncnc2[nH]ccc12 |  | > 100 µM | > 100 µM | > 100 µM |  | > 100 µM | > 100 µM | > 100 µM | > 100 µM | > 100 µM | > 100 µM | > 100 µM | 65.8 µM | > 100 µM | > 100 µM | > 100 µM | 90.9 µM | > 100 µM
Cc1ccc(-c2c(C#N)c(S)n(NS(=O)(=O)c3ccccc3)c(=O)c2C#N)cc1 | 77.4 µM | > 100 µM | 85.4 µM | > 100 µM | 41.9 µM | 31.3 µM |  | > 100 µM | > 100 µM |  |  |  |  |  |  |  |  | 
COc1ccc(/C=N/n2c(C)n[nH]c2=O)cc1 | > 100 µM | > 100 µM |  | > 100 µM |  | > 100 µM | > 100 µM | > 100 µM | > 100 µM | > 100 µM |  |  |  |  |  |  |  | 
COC(=O)CC1(O)C(C=C(C)C)C(C(=O)OC)C(=O)C(C(=O)OC)C1C(=O)OC (stereo not given) | > 100 µM | > 100 µM | > 100 µM | > 100 µM | > 100 µM | > 100 µM | > 100 µM | > 100 µM | > 100 µM |  |  |  |  |  |  |  |  | 
CCOC(=O)c1ccc(Nc2nc3ccc(C(F)(F)F)cc3nc2-c2ccccc2)cc1 | > 100 µM | > 100 µM | > 100 µM | > 100 µM | > 100 µM | > 100 µM | > 100 µM |  | > 100 µM | 87.1 µM |  |  |  |  |  |  |  | 
CCCCCC(/C=N/NC(N)=S)C(O)(C(F)(F)F)C(F)(F)F (stereo not given) |  | > 10 µM | > 10 µM | > 10 µM |  | > 10 µM | > 10 µM | > 10 µM | > 10 µM | > 10 µM |  |  |  |  |  |  |  | 
CCO[C@H]1C[C@@H](c2ccccc2)[C@]2(C)C[C@H](C(=O)OC)ON2O1 | > 100 µM |  | > 100 µM | > 100 µM | > 100 µM |  | > 100 µM |  | > 100 µM | > 100 µM |  |  |  |  |  |  |  | 
CCOC(=O)/C=C/[C@H](O[Si](c1ccccc1)(c1ccccc1)c1ccccc1)C(C)(C)C | > 29 µM | > 31.6 µM | > 31.6 µM | > 31.6 µM | > 100 µM |  | > 31.6 µM | > 31.6 µM | > 31.6 µM | > 31.6 µM |  |  |  |  |  |  |  | 
O=[N+]([O-])c1cccc2nc3ccccc3c(NCCNCCO)c12 | 0.0602 µM and 0.0646 µM | 0.0101 µM | 0.0233 µM and 0.0569 µM | 0.145 µM and 0.144 µM | 0.109 µM | 0.108 µM |  | 0.293 µM and 0.377 µM | 0.0268 µM and 0.0556 µM | 0.101 µM and 0.0533 µM |  |  |  |  |  |  |  | 0.0114 µM
CCOC(=O)c1cc2cc(CSc3ccccc3)ccc2oc1=O | > 100 µM | > 100 µM | > 100 µM | > 100 µM |  | > 100 µM | > 100 µM | > 100 µM | > 100 µM | > 100 µM |  |  |  |  |  |  |  | 
CSCCCNC(=O)c1csc([C@@H](CSC)NC(=O)CCNC(=O)[C@@H](NC(=O)OCC(Br)(Br)Br)C(C)O)n1 (stereo not given in full) |  | > 100 µM | > 100 µM | > 100 µM | > 100 µM | > 100 µM | > 100 µM | > 100 µM | > 100 µM |  |  |  |  |  |  |  |  | 
Cc1[nH]n(-c2nc(O)c(C)c(=O)[nH]2)c(=O)c1CCO | > 100 µM |  | > 100 µM | > 100 µM | > 100 µM | > 100 µM | > 100 µM | > 100 µM |  | > 100 µM |  |  |  |  |  |  |  | 
COc1ccc(NC(C)=O)c(C(=O)CCNC(C)=O)c1 | > 100 µM |  | > 100 µM | > 100 µM | > 100 µM | > 100 µM | > 100 µM | > 100 µM | > 100 µM | > 100 µM |  |  |  |  |  |  |  | 
Cn1c2ccccc2n2c3ccccc3c(=S)c(C#N)c12 | > 100 µM | > 100 µM | > 100 µM | > 100 µM | > 100 µM | > 100 µM | > 100 µM | > 100 µM | > 100 µM |  |  |  |  |  |  |  |  | 
CC(C)(C)OC(=O)/C=C/C(=O)O/C=C/[N+](=O)[O-] | > 100 µM | > 100 µM | > 100 µM | > 100 µM |  | > 100 µM | > 100 µM | > 100 µM | > 100 µM |  |  |  |  |  |  |  |  | 
FC(F)(F)C1(C(F)(F)F)OC(Cl)(Cl)C(Cl)(Cl)O1 |  | > 10 µM | > 10 µM | > 10 µM |  | > 10 µM | > 10 µM | > 10 µM | > 10 µM | > 10 µM |  |  |  |  |  |  |  | 
Cc1cc(S(N)(=O)=O)c(S/C(=N\Nc2ccc([N+](=O)[O-])cc2)c2ccc(Cl)cc2)cc1Cl | 28.3 µM |  | 12.8 µM | 7.48 µM | > 100 µM | 5.3 µM | 4.36 µM | 3.93 µM | 3.85 µM | > 100 µM |  |  |  |  |  |  |  | 
Cc1ccnc2c1c(=O)c1ccccc1n2C | > 100 µM | > 100 µM | > 100 µM |  | > 100 µM | 44.9 µM | 85.2 µM | > 100 µM | > 100 µM | > 100 µM |  |  |  |  |  |  |  | 
O=[N+]([O-])C(=C/C1CCCCC1)/C(=C\C1CCCCC1)[N+](=O)[O-] | 5.4 µM | 36.4 µM | 20.6 µM | 49 µM |  | 12.5 µM | 28.8 µM | 42.7 µM | 31.6 µM | 38 µM |  |  |  |  |  |  |  | 
N#Cc1nsnc1-c1nc(-c2nsnc2C#N)nc(-c2nsnc2C#N)n1 | > 100 µM | > 100 µM | > 100 µM |  | > 100 µM | > 100 µM | > 100 µM |  | > 100 µM |  |  |  |  |  |  |  |  | 
